Reference: PMC6350621, “Small-molecules that covalently react with a human prolyl hydroxylase – towards activity modulation and substrate capture” (Chemical Communications (Cambridge, England), 2018)

Experiments:
PHD2 [1] = test system: PHD2; parameters: method as in PMID 16782814; details: reversible iron-binding inhibitor; cited from earlier work
PHD2_181–426 = target: T1, PHD2_181–426 (Homo sapiens, UniProt Q9GZT9); test: Non-denaturing ESI-MS of covalent adduct formation with PHD2; type: binding; details: for covalent modification of PHD2: analogues of 1/2, compared with 1/2; for condensation (covalent adduct) with PHD2 after 5 min: equimolar PHD2 (20 μM), Fe(II) and compound; for covalent reaction with PHD2 after 20 min: equimolar PHD2 and Fe(II), cone voltage 200 V
T1 construct: PHD2_181–426 (hereafter PHD2); His6 (N, cleaved yes); made in house; host or cells: bacterial culture (2x TY, kanamycin, IPTG)
T1 sequence (Q9GZT9 181-426): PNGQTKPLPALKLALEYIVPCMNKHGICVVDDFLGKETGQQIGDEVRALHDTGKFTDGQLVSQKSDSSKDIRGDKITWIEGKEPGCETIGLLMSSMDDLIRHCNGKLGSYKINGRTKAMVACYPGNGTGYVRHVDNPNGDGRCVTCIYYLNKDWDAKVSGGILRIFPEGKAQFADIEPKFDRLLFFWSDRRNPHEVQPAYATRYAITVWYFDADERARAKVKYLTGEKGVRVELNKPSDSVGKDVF
Experimental: The interaction of the ligands with PHD2_181–426 (hereafter PHD2) was examined by non-denaturing ESI-MS, using cone voltage variation to distinguish covalent and non-covalent complexes (non-covalent interactions are typically preserved at cone voltages of 50–80 V, and dissociated at 200 V).[16]–[18] Aldehydes 1 and 2 were incubated with equimolar PHD2 and Fe(II) (37 °C; 5 or 20 min). […] Without Fe(II), neither covalent nor non-covalent adducts were observed, implying covalent conjugation involves active site Fe(II) binding, with subsequent condensation.
Fig. S2 A) Schematic representation of the assigned species formed on addition of 1 or 2 to PHD2. The results support initial non-covalent binding of the inhibitors to PHD2.Fe(II) to form B. Subsequently, condensation of a lysine residue with the aldehyde forms the covalent adduct C. (B) and (C): Non-denaturing ESI-MS data support the covalent crosslinking of 1/2 with PHD2. Conditions: PHD2 (20 µM) was incubated (37 °C, 5 or 20 min) with equimolar FeSO4 and 1 or 2, and the resulting mixtures were analysed by ESI-MS (cone voltage: 50 V or 200 V). Labelled peaks correspond to: A: Unmodified PHD2.Fe. B: Non-covalent adduct PHD2.Fe.2. C: Covalent adduct PHD2.Fe.1/2.
Fig. S6 The α,β-unsaturated amide 3 can covalently modify PHD2. (A) Schematic representation of the adducts formed upon incubation of 3 with PHD2.
PHD2. PHD2 (20 µM) was incubated (37 °C, 5 min, 1 h or 2 h) with equimolar FeSO4 and 3 or 4 before analysis by ESI-MS (cone voltage: 50 V or 200 V). Labelled peaks correspond to the following assigned complexes: A: unmodified PHD2.Fe; B: the non-covalent PHD2.Fe.3 adduct; C: the covalent PHD2.Fe.3 adduct.
2. Experimental procedures
1.1.1 Non-denaturing mass spectrometry1
Apo PHD2 was desalted using a Bio-Spin 6 Column (Bio-Rad, Hemel Hempstead, UK) into 15 mM ammonium acetate (pH 7.5). The stock solution was diluted with the same buffer to a final concentration of 100 μM. FeSO4·7H2O was dissolved in 20 mM HCl at a concentration of 100 mM. This solution was then diluted with MilliQ purified water to give a final working concentration of 100 μM. The protein was mixed with the Fe(II) solution and the inhibitor solution to give final concentrations of 20 μM PHD2, 20 μM Fe(II), and 20 μM inhibitor. The resultant solution was incubated for the appropriate time (specified in the text) at 37 […]
(5 min or 20 min) at 37 °C. After incubation, the samples were immediately analysed by ESI-MS. Data were acquired using a Q-TOF mass spectrometer (Q-TOF micro, Micromass, Altrincham, UK) interfaced with a Nanomate (Advion Biosciences, Ithaca, NY, USA) with a chip voltage of 1.70 kV and a delivery pressure 0.5 psi (1 psi = […]). The sample cone voltage was typically 200 or 50 V with a source temperature of 40 °C and with an acquisition/scan time of 10s/1s. Sample acquisition was performed in positive ion mode in the range of 2000-4000 m/z. The pressure at the interface between the atmospheric source and the high vacuum region was fixed at 6.30 mbar. External instrument calibration was achieved using sodium iodide.

PHD2 (residues 181-426) [2] = target: T2, PHD2 (residues 181-426) (Homo sapiens, UniProt Q9GZT9); test: biochemical
T2 sequence (Q9GZT9 181-426): as above

HIF-1α in HeLa cells = test: HIF-1α levels in HeLa cells by anti-HIF-1α immunoblotting; details: 6 h
PHD2 (residues 181-426) [3] = target: T2, PHD2 (residues 181-426); test: AlphaScreen antibody based PHD2 inhibition assay; details: preincubated versus not
PHD2 [4] = target: T3, PHD2 (Homo sapiens, UniProt Q9GZT9); test: Peptide turnover assay (CODD hydroxylation) with MALDI-MS detection; type: biochemical; details: >95% crosslinked PHD2·Fe·compound, 30 µM compound kept in the assay
T3 construct: PHD2_181–426 (hereafter PHD2); His6 (N, cleaved yes); made in house; host or cells: bacterial culture (2x TY, kanamycin, IPTG)
T3 sequence (Q9GZT9 181-426): as above

KDM4A = target: T4, KDM4A (Homo sapiens, UniProt O75164); test: AlphaScreen assay KDM4A
T4 sequence (O75164 1-1064): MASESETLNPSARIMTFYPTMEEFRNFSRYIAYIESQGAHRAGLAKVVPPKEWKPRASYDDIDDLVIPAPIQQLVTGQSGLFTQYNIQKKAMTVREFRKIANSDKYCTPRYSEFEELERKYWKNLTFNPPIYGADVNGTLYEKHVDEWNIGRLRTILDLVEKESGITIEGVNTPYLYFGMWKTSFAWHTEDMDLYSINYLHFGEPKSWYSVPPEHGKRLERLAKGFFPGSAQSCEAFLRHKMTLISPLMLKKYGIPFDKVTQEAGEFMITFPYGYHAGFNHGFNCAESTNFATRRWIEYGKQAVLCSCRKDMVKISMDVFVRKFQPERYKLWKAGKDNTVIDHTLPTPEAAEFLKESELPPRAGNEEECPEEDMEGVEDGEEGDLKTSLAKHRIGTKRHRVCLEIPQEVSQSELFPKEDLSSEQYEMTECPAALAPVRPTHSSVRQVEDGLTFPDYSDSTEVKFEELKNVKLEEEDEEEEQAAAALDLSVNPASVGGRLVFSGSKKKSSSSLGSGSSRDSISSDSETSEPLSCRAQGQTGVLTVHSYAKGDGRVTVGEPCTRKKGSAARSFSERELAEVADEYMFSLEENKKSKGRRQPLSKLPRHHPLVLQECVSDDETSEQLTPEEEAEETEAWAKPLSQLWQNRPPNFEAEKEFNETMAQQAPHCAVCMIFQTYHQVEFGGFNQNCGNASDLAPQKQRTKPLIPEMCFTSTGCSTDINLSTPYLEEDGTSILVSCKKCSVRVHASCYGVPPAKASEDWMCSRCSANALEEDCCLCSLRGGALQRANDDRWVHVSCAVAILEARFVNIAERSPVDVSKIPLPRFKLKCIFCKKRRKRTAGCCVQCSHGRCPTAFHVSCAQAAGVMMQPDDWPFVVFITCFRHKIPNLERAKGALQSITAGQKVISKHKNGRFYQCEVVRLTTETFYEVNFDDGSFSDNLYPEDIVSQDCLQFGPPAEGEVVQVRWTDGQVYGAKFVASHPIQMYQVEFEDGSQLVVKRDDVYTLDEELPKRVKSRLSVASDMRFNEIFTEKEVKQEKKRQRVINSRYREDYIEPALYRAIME

KDM6B = KDM6B (Homo sapiens, UniProt O15054); test: AlphaScreen assay KDM6B
Sequence of KDM6B (O15054 whole entry, species assumed): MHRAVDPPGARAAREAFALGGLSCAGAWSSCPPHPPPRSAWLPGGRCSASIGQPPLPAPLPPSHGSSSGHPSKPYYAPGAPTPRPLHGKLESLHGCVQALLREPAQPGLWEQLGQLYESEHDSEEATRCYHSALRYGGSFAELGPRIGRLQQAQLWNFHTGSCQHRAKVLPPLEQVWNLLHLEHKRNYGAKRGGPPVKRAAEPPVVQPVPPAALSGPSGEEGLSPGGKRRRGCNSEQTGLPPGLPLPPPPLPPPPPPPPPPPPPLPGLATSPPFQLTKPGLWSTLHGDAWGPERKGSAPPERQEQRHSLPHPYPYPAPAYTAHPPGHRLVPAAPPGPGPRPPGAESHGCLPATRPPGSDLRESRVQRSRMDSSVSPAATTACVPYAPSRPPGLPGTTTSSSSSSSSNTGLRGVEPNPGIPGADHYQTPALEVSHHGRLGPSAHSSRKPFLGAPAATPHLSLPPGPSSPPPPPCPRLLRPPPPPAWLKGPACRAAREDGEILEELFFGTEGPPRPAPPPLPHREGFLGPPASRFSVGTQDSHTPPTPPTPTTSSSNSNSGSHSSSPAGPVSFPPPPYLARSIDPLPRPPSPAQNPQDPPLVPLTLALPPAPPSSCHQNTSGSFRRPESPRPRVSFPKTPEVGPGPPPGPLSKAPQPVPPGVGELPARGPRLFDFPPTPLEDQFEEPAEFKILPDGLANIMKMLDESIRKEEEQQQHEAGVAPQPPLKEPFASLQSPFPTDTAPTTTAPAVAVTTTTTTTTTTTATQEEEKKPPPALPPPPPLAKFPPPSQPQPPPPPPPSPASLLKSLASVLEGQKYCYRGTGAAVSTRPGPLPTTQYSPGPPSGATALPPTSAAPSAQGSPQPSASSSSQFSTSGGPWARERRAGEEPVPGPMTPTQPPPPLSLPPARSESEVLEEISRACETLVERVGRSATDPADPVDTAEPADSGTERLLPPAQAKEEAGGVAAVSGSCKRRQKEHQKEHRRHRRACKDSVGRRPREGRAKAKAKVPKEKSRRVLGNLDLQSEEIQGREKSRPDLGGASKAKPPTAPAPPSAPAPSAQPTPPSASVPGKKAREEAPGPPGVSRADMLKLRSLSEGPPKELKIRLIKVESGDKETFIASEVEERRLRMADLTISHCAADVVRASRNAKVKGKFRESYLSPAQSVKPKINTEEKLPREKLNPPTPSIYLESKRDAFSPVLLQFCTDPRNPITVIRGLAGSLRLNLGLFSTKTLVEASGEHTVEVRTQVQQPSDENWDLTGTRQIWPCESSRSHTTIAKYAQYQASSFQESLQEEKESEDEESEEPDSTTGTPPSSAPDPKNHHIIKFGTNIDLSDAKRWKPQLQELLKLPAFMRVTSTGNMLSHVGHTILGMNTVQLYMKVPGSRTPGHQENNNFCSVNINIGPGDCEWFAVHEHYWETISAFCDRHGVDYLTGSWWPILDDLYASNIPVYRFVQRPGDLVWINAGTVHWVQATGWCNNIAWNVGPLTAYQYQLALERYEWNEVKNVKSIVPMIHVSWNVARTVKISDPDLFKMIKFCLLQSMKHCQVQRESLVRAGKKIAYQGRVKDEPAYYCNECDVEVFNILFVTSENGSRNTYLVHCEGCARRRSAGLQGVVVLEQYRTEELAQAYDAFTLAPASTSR

KDM4D = target: T5, KDM4D (Homo sapiens, UniProt Q6B0I6); test: AlphaScreen assay KDM4D
T5 sequence (Q6B0I6 1-523): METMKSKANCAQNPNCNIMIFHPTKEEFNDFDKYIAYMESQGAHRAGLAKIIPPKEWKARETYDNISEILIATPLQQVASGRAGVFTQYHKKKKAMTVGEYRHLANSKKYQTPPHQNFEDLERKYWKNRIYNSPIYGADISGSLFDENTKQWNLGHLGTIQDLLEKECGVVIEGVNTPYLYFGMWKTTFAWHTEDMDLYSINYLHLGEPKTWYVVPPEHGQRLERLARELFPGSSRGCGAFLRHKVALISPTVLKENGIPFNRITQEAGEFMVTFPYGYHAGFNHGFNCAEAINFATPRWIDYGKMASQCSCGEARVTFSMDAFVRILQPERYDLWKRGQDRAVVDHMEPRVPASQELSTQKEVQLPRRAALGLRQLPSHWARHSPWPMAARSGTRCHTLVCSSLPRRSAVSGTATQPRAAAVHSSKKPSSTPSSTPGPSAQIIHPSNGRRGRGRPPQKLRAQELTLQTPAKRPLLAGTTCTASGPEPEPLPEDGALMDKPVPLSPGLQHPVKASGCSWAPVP

KDM5B = KDM5B (Homo sapiens, UniProt Q9UGL1); test: AlphaScreen assay KDM5B
Sequence of KDM5B (Q9UGL1 whole entry, species assumed): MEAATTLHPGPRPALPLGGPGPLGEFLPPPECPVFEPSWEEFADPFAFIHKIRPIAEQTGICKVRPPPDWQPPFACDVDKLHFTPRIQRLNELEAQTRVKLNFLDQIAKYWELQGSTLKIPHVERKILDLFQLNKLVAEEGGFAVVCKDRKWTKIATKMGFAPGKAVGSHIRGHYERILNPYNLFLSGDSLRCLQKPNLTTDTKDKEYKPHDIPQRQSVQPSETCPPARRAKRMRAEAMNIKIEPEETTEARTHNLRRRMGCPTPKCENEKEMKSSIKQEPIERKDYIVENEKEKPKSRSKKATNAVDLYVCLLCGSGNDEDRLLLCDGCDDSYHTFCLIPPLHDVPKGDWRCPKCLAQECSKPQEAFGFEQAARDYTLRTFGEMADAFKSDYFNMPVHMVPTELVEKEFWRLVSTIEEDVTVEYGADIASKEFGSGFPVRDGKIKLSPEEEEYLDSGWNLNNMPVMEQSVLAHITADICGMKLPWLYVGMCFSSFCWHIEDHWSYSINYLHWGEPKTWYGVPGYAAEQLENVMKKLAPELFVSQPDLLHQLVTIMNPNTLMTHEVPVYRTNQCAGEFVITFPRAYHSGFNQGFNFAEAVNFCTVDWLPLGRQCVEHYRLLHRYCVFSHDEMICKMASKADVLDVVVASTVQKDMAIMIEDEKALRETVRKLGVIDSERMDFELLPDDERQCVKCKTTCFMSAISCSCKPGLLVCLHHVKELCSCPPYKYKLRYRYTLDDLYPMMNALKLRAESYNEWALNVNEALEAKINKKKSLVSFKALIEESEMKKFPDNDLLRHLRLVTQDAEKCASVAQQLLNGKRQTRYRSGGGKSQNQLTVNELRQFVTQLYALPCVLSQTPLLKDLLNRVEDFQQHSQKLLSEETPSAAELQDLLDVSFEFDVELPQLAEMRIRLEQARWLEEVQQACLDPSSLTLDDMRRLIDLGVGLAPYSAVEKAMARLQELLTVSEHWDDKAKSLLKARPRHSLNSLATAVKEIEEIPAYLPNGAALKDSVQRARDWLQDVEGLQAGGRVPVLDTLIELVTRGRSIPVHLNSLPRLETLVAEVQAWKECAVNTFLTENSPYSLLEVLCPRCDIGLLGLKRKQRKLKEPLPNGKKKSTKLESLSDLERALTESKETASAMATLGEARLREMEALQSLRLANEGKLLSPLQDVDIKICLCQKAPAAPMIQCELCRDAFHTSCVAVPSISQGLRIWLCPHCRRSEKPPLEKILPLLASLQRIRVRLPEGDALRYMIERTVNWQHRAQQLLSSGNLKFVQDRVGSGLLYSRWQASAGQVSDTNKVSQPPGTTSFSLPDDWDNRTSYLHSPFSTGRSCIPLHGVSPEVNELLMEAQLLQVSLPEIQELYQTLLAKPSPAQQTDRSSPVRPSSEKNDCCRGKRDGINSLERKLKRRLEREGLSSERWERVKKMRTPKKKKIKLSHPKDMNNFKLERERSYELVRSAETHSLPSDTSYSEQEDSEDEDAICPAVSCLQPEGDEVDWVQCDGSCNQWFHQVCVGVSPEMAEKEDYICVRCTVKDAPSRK

O=Cc1ccc(O)c(C(=O)NCC(=O)O)c1 [S1]
covalent modification of PHD2 (PHD2_181–426): No covalent modification

O=Cc1cccc(C(=O)NCC(=O)O)n1 [S4]
covalent modification of PHD2 (PHD2_181–426): Some apparent covalent modification

O=Cc1cccc(C(=O)NCC(=O)O)c1O [compound 1]
IC50 (PHD2 (residues 181-426) [2]): > 100 µM
condensation (covalent adduct) with PHD2 after 5 min (PHD2_181–426; 37 °C): complete condensation
covalent reaction with PHD2 after 20 min (PHD2_181–426; 37 °C): react with PHD2
HIF-1α upregulation in HeLa cells (HIF-1α in HeLa cells; 50 or 250 µM): no upregulation of HIF-1α
drop of IC50 on preincubation (PHD2 (residues 181-426) [3]): ~2 fold
catalytic activity (CODD hydroxylation) of PHD2 covalently modified by the compound (PHD2 [4]): apparently active

O=Cc1c(O)c(C(=O)NCC(=O)O)cc2ccccc12 [compound 2]
IC50 (PHD2 (residues 181-426) [2]): > 100 µM
condensation (covalent adduct) with PHD2 after 5 min (PHD2_181–426; 37 °C): ~30%
covalent reaction with PHD2 after 20 min (PHD2_181–426; 37 °C): react with PHD2
HIF-1α upregulation in HeLa cells (HIF-1α in HeLa cells; 50 or 250 µM): no upregulation of HIF-1α
drop of IC50 on preincubation (PHD2 (residues 181-426) [3]): ~2 fold
catalytic activity (CODD hydroxylation) of PHD2 covalently modified by the compound (PHD2 [4]): apparently active

C=CCc1cccc(C(=O)NCC(=O)O)c1O [compound 4]
covalent adduct with PHD2 after up to 2 h (PHD2_181–426; equimolar PHD2/Fe(II), 37 °C, up to 2 h): No covalent adduct

CCOC(=O)CNC(=O)c1cccc(C=O)c1O [compound 5]
HIF-1α upregulation in HeLa cells (HIF-1α in HeLa cells; 0-500 μM): caused upregulation of HIF-1α
HIF-1α upregulation in HeLa cells at high concentrations (HIF-1α in HeLa cells; >250 μM): more pronounced HIF-1α upregulation

C=CC(=O)Nc1cc(N=[N+]=[N-])cc(C(=O)NCC(=O)O)c1O [compound 7]
IC50 (KDM4A): 18.2 µM
IC50 (KDM6B): 8.4 µM
IC50 (KDM4D): 10.3 µM
IC50 (KDM5B): 13.6 µM
